Test results from ChEMBL document CHEMBL2157896, “Engineering pH-gated transitions for selective and efficient double-strand DNA photocleavage in hypoxic tumors” (J Med Chem, 2011).

What was measured:
Assay type in all cases: nucleic-acid assay
[1] = system: Nucleic Acid; experiment: Induction of photochemical DNA cleavage in Escherichia coli pBR322 assessed as form I level at 15 uM in pH 8.0 phosphate buffer measured after 8 mins of UV irradiation
[2] = system: Nucleic Acid; experiment: Induction of photochemical DNA cleavage in Escherichia coli pBR322 assessed as form 2 level at 15 uM in pH 8.0 phosphate buffer measured after 4 mins of UV irradiation
[3] = system: Nucleic Acid; experiment: Induction of photochemical DNA cleavage in Escherichia coli pBR322 assessed as form 2 level at 15 uM in pH 8.0 phosphate buffer measured after 6 mins of UV irradiation
[4] = system: Nucleic Acid; experiment: Induction of photochemical DNA cleavage in Escherichia coli pBR322 assessed as form 3 level at 15 uM in pH 6.0 phosphate buffer measured after 1 min of UV irradiation
[5] = system: Nucleic Acid; experiment: Induction of photochemical DNA cleavage in Escherichia coli pBR322 assessed as form 3 level at 15 uM in pH 7.0 phosphate buffer measured after 2 mins of UV irradiation
[6] = system: Nucleic Acid; experiment: Induction of photochemical DNA cleavage in Escherichia coli pBR322 assessed as form 3 level at 15 uM in pH 8.0 phosphate buffer measured after 8 mins of UV irradiation
[7] = system: Nucleic Acid; experiment: Induction of DNA cleavage in Escherichia coli pBR322 at 10 uM in pH 6.0 phosphate buffer measured after of UV irradiation

Activity [1]: 42.3%
Activity [2]: 41.4%
Activity [3]: 59.2%
Activity [4]: 17.1%
Activity [5]: 12.7%
Activity [6]: 12.1%
Activity [7]: 75%
SMILES: NCCCC[C@H](N)C(=O)NCCCC[C@H](N)C(=O)Nc1ccc(C#Cc2c(F)c(F)nc(F)c2F)cc1.O=C(O)C(F)(F)F
